Series [1] deals with vomissements induits par le cisplatine. Put plainly: Oral antiemetic activity against cisplatin-induced vomiting in the dog. Type of series: in vivo, chien. As to conditions: for VOMISSEMENTS % DE DIMINUTION EN NOMBRE / VOMISSEMENTS % DE DIMINUTION EN TOUT OU RIEN / VOMISSEMENTS NOMBRE MOYEN: 6 h observation, 4 dogs; for VOMISSEMENTS NOMBRE MOYEN: control 10,8. From the text:
A titre d'exemple, on étudie ci-après l'activité antiémétique par voie orale du chlorhydrate du N-(quinuclidinyl-3) amino-4 chloro-5 méthoxy-2 benzamide, sous la forme du mélange racémique (code MD 780209), de l'énantiomère lévogyre de configuration S (code MD 200054) et de l'énantiomère dextrogyre de configuration R (code MD 200051), vis-à-vis des vomissements induits par le cisplatine chez le chien.
La méthode est dérivée de celle décrite par J.A. GYLYS et coll. (Res. Commun. Chem. Pathol. Pharmacol. 1979, 23, n° 1, p. 61-68). Les vomissements sont induits par injection intraveineuse de cisplatine (DCI) à la dose de 3 mg/kg chez des chiens tout-venants, mâle ou femelle, de poids compris entre 10 et 16 kg, à la diète hydrique depuis 24 heures.
Les composés à tester sont administrés par voie orale 60 minutes après l'injection de cisplatine.
Les animaux sont alimentés 1 h 30 après le traitement. La durée d'observation est de 6 heures après l'injection de cisplatine.

The nature of series [2]: Side effects and toxicity at the active doses (no method described). Conditions: in words, compared with the dextrorotatory enantiomer. Type of series: in vivo.
[3] abbreviates: dog, 15 μ g/kg oral 60 min after cisplatin 3 mg/kg i.v.
The mark [4] stands for this setting: dog, 30 μ g/kg oral 60 min after cisplatin 3 mg/kg i.v.
Setting [5] is: dog, 7,5 μ g/kg oral 60 min after cisplatin 3 mg/kg i.v.

SMILES strings stand for the structures.

In the case of `COc1cc(N)c(Cl)cc1C(=O)NC1CN2CCC1CC2` (racemic) [MD 780209, N-(quinuclidinyl-3) amino-4 chloro-5 méthoxy-2 benzamide, reference compound], in series [1] (setting [3]), the “VOMISSEMENTS % DE DIMINUTION EN NOMBRE” value is listed as 81,4%, the “VOMISSEMENTS % DE DIMINUTION EN TOUT OU RIEN” value was found to be 25% and the “VOMISSEMENTS NOMBRE MOYEN” value was determined as 2.
In the case of `COc1cc(N)c(Cl)cc1C(=O)N[C@H]1CN2CCC1CC2` [MD 200051, N-(quinuclidinyl-3) amino-4 chloro-5 méthoxy-2 benzamide], in series [1] (setting [4]), the “VOMISSEMENTS % DE DIMINUTION EN NOMBRE” value was 34,9%, the “VOMISSEMENTS % DE DIMINUTION EN TOUT OU RIEN” value is listed as 0% and the “VOMISSEMENTS NOMBRE MOYEN” value was found to be 7.
For the compound `COc1cc(N)c(Cl)cc1C(=O)N[C@@H]1CN2CCC1CC2` [MD 200054, N-(quinuclidinyl-3) amino-4 chloro-5 méthoxy-2 benzamide], in series [2], the effets secondaires entry was “moins d'effets secondaires”. Also, in series [1] (setting [5]), the “VOMISSEMENTS % DE DIMINUTION EN NOMBRE” value was 95,3%, the “VOMISSEMENTS % DE DIMINUTION EN TOUT OU RIEN” value was 75% and the “VOMISSEMENTS NOMBRE MOYEN” value was 0,5. For the same compound, the “inhiber les vomissements induits par des drogues anticancéreuses telles que le cisplatine” value in series [1] (in words, compared with the antipode MD 200051 and the corresponding racemate) was “beaucoup plus actif”.
